In PMC8389922, “First-in-Class Cyclic Temporin L Analogue: Design, Synthesis, and Antimicrobial Assessment” (Journal of Medicinal Chemistry, 2021):
Values after ≈ are worked out from the molar mass of the structure shown. Square brackets hold non-standard residues; d marks the D form. Peptide text beside a SMILES is read from it.

What was measured:
[1] = test system: E. coli ATCC 25922; assay type: cell-based, Escherichia coli
How it was run: (§1)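 MICs were determined by broth microdilution, with bacteria at a final 1 × 10^6 CFU/mL and peptides tested from 100 to 0.78 μM.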

[2] = circular dichroism; conditions: water; pH ns; 25 °C; 50 uM
[3] = in vitro; conditions: male, human, 90% fresh human serum
Procedure: (§4) Peptides were incubated with 90% fresh human serum at 37 ± 1 °C within 12 h.[69] The percentage of intact peptide was monitored by calculating the peak area of the chromatogram from RP-HPLC analysis.
(§5) The peptide was incubated in a 1.5 mL eppendorf tube with human serum at a final concentration of 0.2 mM, and the mixture was incubated at 37 ± 1 °C for different periods (0.25, 0.75, 1.5, 2, 3, 4, 6, 7, 8, and 12 h). After the incubation period, an aliquot of reaction solution was taken and added MeCN (double volume respect to the aliquot) for the precipitation of serum proteins present in human serum. The produced cloudy solution was cooled (4 °C) for 15 min and then centrifuged at 13 000 rpm for 10 min to remove the serum protein as pellet. Then, the supernatant was analyzed by RP-UHPLC using a linear elution gradient from 10 to 90% MeCN (0.1% TFA) in water (0.1% TFA) over 20 min. A flow rate of 1 mL/min was employed, and the absorbance of the eluting peaks was detected at 220 nm. The proteolytic stability assay was repeated in triplicate.

[4] = test system: A. baumannii ATCC 19606; assay type: cell-based, Acinetobacter baumannii
How it was run: as §1

[5] = test system: S. epidermidis ATCC 12228; assay type: cell-based, Staphylococcus epidermidis
How it was run: as §1

[6] = 90% fresh human serum (male AB plasma), 37 ± 1 °C, peptide 0.2 mM, MeCN precipitation, RP-UHPLC peak area at 220 nm, triplicate
Procedure: as §4, §5

[7] = test system: preformed biofilm of A. baumannii ATCC 19606; conditions: ATCC 19606, 20 h
Procedure: (§2) Biofilm viability was determined as indicated in the Materials and General Procedures section and expressed as a percentage compared to that of untreated samples (100%). Values are the mean of at least three replicates ± SEM. Data are considered to be statistically significant as follows: *p < 0.05; ***p < 0.001; ****p < 0.0001. Biofilm eradication concentration 90, BEC90, was defined as the concentration able to reduce at least 90% of biofilm cells. TEXT PRINTED IN THE PICTURE: 9: S. aureus ATCC 25923: BEC90 = 25 μM; A. baumannii ATCC 19606: BEC90 > 100 μM | 12: S. aureus ATCC 25923: BEC90 = 12.5 μM; A. baumannii ATCC 19606: BEC90 = 25 μM
(§3) Preformed biofilms of S. aureus ATCC 25923 and A. baumannii ATCC 19606 were obtained as previously reported.[77] Microbial cultures were grown in Luria-Bertani broth (LB) at 37 °C to an optical density (OD) of 0.8 (λ = 590 nm) and then diluted in LB to a cell density of 1 × 10^6 colony-forming units (CFUs)/mL. Aliquots of 100 μL were dispensed into the wells of a 96-well plate, which was incubated for 20 h at 37 °C to allow biofilm formation. The medium containing planktonic cells was then aspirated from the wells and washed twice with 150 μL of phosphate-buffered saline (PBS) to remove any nonadherent cells. […] After treatment, each well was rinsed twice with PBS, as previously described. Then, 150 μL of MTT solution (0.5 mg/mL) were added to each well to evaluate biofilm cell viability. The plates were incubated at 37 °C for 4 h in the dark, and the reaction was stopped by adding sodium dodecyl sulfate (SDS) (at a final concentration of 5% v/v). The absorbance of each well was recorded at 570 nm using a microplate reader (Infinite M200; Tecan, Salzburg, Austria), and the percentage of biofilm cells viability was calculated with respect to the untreated samples (100%).

[8] = test system: preformed biofilm of S. aureus ATCC 25923; conditions: ATCC 25923, 20 h
Procedure: as §2, §3

[9] = test system: B. megaterium Bm11; assay type: cell-based, Bacillus megaterium
How it was run: as §1

[10] = test system: P. aeruginosa ATCC 27853; assay type: cell-based, Pseudomonas aeruginosa
How it was run: as §1

[11] = test system: S. aureus ATCC 43300, a methicillin-resistant strain (MRSA); assay type: cell-based, Staphylococcus aureus
Procedure: Thus, 12 was further tested against S. aureus ATCC 43300, a methicillin-resistant strain (MRSA), and compared with the linear precursor 9. […] No growth was observed after 24 h. Peptide 9 was bactericidal as well, by killing MRSA within 10 min, but at a higher concentration (25 μM).
The bacterial strains used in the antimicrobial assays were the Gram-negative E. coli ATCC 25922, P. aeruginosa ATCC 27853, A. baumannii ATCC 19606, the Gram-positive S. aureus ATCC 25923, S. epidermidis ATCC 12228, and B. megaterium Bm11. Methicillin-resistant S. aureus (MRSA) ATCC 43300 was obtained from Culture Collection Center of School of Basic Medical Sciences of Lanzhou University (China).
The determination of MICs was conducted as previously reported.[61] Aliquots of 50 μL of bacterial culture appropriately diluted were added to each well of a 96-well plate to reach a final cell density of 1 × 10^6 CFU/mL and a final peptide concentration ranging from 100 to 0.78 μM (final volume 100 μL).

[12] = test system: S. aureus ATCC 25923; assay type: cell-based, Staphylococcus aureus
How it was run: as §1

[13] = molecular target: FtsZ protein; conditions: E. coli divisome; cited from earlier work
Description: Temporins are AMPs and belong to the group of host defense peptides (HDP), originally isolated from the amphibian skin secretions of the […] Rana temporaria.[29] Their sequences are composed of 10–14 amino acids, amidated at the C-terminus. In hydrophobic environments, temporins fold into an amphipathic α-helix that, along with their cationic nature at physiological pH (from +2 to +3), is accountable for their biological behavior.

| Compound | MIC E. coli ATCC 25922 [1] [µM] | helicity [2] [%] | metabolised at 0.75 h, 0.2 mM [3] [%] | MIC A. baumannii ATCC 19606 [4] [µM] | MIC S. epidermidis ATCC 12228 [5] [µM] | time to complete degradation in human serum [6] [h] | Biofilm Eradication Concentration 90 (BEC90) A. baumannii ATCC 19606 [7] [µM] | Biofilm Eradication Concentration 90 (BEC90) S. aureus ATCC 25923 [8] [µM] | MIC B. megaterium Bm11 [9] [µM] | MIC P. aeruginosa ATCC 27853 [10] [µM] | MIC S. aureus ATCC 43300 (MRSA) [11] [µM] | MIC S. aureus ATCC 25923 [12] [µM] | Kd [13] [nM] |
| --- | --- | --- | --- | --- | --- | --- | --- | --- | --- | --- | --- | --- | --- |
| CC[C@H](C)[C@H](NC(=O)[C@H](CCCNC(=N)N)NC(=O)CNC(=O)[C@@H](CC(C)C)NC(=O)[C@H](Cc1ccccc1)NC(=O)[C@H](CCCCN)NC(=O)[C@H](CO)NC(=O)[C@H](Cc1ccccc1)NC(=O)[C@H](Cc1c[nH]c2ccccc12)NC(=O)[C@@H]1CCCN1C(=O)[C@@H](NC(=O)[C@@H](N)Cc1ccccc1)C(C)C)C(=O)N[C@@H](CC(C)C)C(N)=O [compound 9, [Pro^3,DLeu^9]TL, reference compound] (H-FVPWFSKF[dL]GRIL-NH2) | 12.5 (≈ 20.1 µg/mL) | 3 | ~40 | 6.25 (≈ 10.1 µg/mL) | 6.25 (≈ 10.1 µg/mL) | ≤ 6 | > 100 | 25 | 1.56 (≈ 2.51 µg/mL) | 50 (≈ 80.5 µg/mL) | 25 (≈ 40.2 µg/mL) | 6.25 (≈ 10.1 µg/mL) | – |
| FVQWFSKFLGRIL [compound 7, Temporin L] | – | – | – | – | – | – | – | – | – | – | – | – | 17.4 ± 0.8 |
